Reference: US9043995B2, “Transgenic fish and uses thereof” (CITY UNIVERSITY OF HONG KONG, priority 2010, dated 2015)
“Also recorded” adds a separate entry of the source.

Experiments:
[1] = system: transgenic medaka fish larvae (omChgH promoter-EGFP); assay: Binary exposure with E2: change of the liver GFP signal induced by 17β-estradiol in transgenic medaka larvae (agonism / anti-estrogen activity); assay type: in vivo, Oryzias melastigma; details: for effect on estrogenic activity / liver GFP signal induced by 17β-estradiol: binary exposure with E2
Procedure: Another method of the present invention relates to a method of screening for a compound having anti-estrogenic activity.
(§1) In response to different concentrations of estrogen or estrogen-like chemical substances, transgenic fish expresses varying quantity of EGFP protein which is presented as varying GFP signal intensity under fluorescence microscope. […] To quantify the estrogen-like activity of test solution, fluorescent image of fish liver is recorded using a camera connected with the fluorescence microscope. Liver GFP signal intensity can then be measured using some image analysis software such as Metamorph (Universal Imaging). To reduce the interference of fish autofluorescence, only fish liver area was selected for the analysis. The average signal intensity of the manually marked area calculated using the same software was regarded as GFP signal intensity. Fish liver photos recorded using the same image parameter setting can be compared directly using GFP signal intensity, those photos recorded using varying image parameter settings can also be compared as long as each group contain a common reference control.
6-acetyl-1,1,2,4,4,7-hexamethyltetraline (AHTN) is one of the most widely used polycyclic musk. This compound is used as a fragrance ingredient in cosmetics and household cleaning products. According to HERA Risk Assessment reports in 2004, AHTN is produced in an annual volume of 1000 to 5000 tons in one Netherland and UK plant, respectively. According to HERA Risk Assessments, AHTN is not toxic to humans basing on present daily consumption. However, the ubiquitous distribution, high accumulation in environment (A Peck et al. Environ Sci Technol. 40: 5629-5635 (2006)), and bioaccumulation in organisms including human beings (H Nakata et al. Environ Sci Technol. 41: 2216-2222 (2007); S Lignell et al. Environ Sci Technol. 42: 6743-6748 (2008)) raise the concern of scientists. AHTN is found to be estrogen antagonist (RHMM Schreurs et al. Environ Sci Technol. 38: 997-1002 (2004); RHMM Schreurs et al. Toxicol Sci. 83: 264-272 (2005)). The estrogen antagonist activity of AHTN can also be very easily evaluated using transgenic medaka fish of present invention. Just expose transgenic medaka fish larvae to E2 (e.g. 0.04 μM) or E2 incombination with AHTN (e.g. 5 μM) for a period of time (e.g. 24 hours), and then measure the GFP signal intensity induced by E2 with/without the presence of AHTN.

[2] = system: transgenic brackish medaka larvae (omChgH promoter-EGFP); assay: Estrogen-like activity: induced liver GFP signal in omChgH promoter-EGFP transgenic brackish medaka fish exposed to test solution; assay type: in vivo, Oryzias melastigma; details: for induction of GFP expression in the liver, compound alone: transgenic O. melastigma fish/larvae; for induction of liver GFP expression: transgenic brackish medaka larvae, at nM level; for GFP signal in the liver: phytoestrogens separately, high concentrations, 48 hours
Procedure: A generalized exposure regimen is established in the present art. FIG. 4 presents an example of using transgenic fish larvae to analyze the estrogen-like activity of a test solution. Exposure of transgenic brackish medaka fish (preferably yolk-sac larvae fish) to test solution (containing estrogen or estrogenic substances) is performed at 28° C. The exposure usually takes 24-48 hours. After exposure, the fish will be deposited on the inner side of a petri-dish cover with a small drop of test solution left. The induced EGFP expression in the fish liver will be observed under fluorescence microscope. Yolk-sac larvae are small, exposure can be carried out in utensils like 96-well plate, 24-well plate, petri-dish and so on to save test reagents. Additionally, newly hatched larvae are the most transparent stage, and the transparence can keep up to 15 days after hatch. After 15 days, the larvae will be gradually less transparent due to the development of muscle. The transgenic fish larvae of 1 to 15 days after hatch have similar estrogen sensitivity (FIG. 5).
as §1
Estrone (E1), 17β-estradiol (E2) and estriol (E3) are natural steroid estrogens. […] Of them, E2 has been intensively studied, and is commonly used as a standard estrogen to evaluate the estrogen-like activity of testing reagents. Using transgenic larvae of present invention, induced GFP signal by E2 can usually be observed within 24 hours, and the GFP signal increases with the increasing concentration of E2. At higher E2 concentrations (e.g., 102 or 1020 nM), induced GFP signal intensity can even be observed within 4 hours after onset of exposure, and the signal increases with exposure time (FIG. 8), and reaches saturation within 24 hours. At low E2 concentrations, however, it will take longer for the induced GFP signal to accumulate to become detectable. Thus, by exposing transgenic brackish medaka fish larvae to different concentrations of E2 for a period of time (such as 24 hours), imaging the GFP expressing liver, and then measuring the induced liver GFP signal intensity using image analysis software, a standard curve correlating GFP signal intensity and E2 concentration can be established (GFP-E2 standard curve; FIG. 9). Using the same regimen, and also include one known E2 concentration exposure as reference, the estrogen-like activity of test reagents can then be evaluated as estrogen potency equivalent by referring the induced liver GFP signal to that of GFP-E2 standard curve.

| SMILES | effect on estrogenic activity / liver GFP signal induced by 17β-estradiol [1] | induction of GFP expression in the liver, compound alone [2] | GFP signal in the liver [2] | further results |
| --- | --- | --- | --- | --- |
| CC(=O)c1cc2c(cc1C)C(C)(C)C(C)CC2(C)C (stereo not drawn) [AHTN, 6-acetyl-1,1,2,4,4,7-hexamethyltetraline] | decreased | – | – | GFP signal induced by E2 in the presence of AHTN ([1]; E2 0.04 μM, AHTN 5 μM, 24 hours): weaker GFP signal |
| COc1ccc(C(=O)CC(=O)c2ccc(C(C)(C)C)cc2)cc1 [BMDM, 4-tert-Butyl-4′-methoxydibenzoylmethane] | estrogen agonism | cannot induce the GFP expression | – | – |
| CC(C)(c1ccc(O)cc1)c1ccc(O)cc1 [BPA, bisphenol A] | – | can also induce GFP expression | – | – |
| C[C@]12CC[C@@H]3c4ccc(O)cc4CC[C@H]3[C@@H]1CC[C@@H]2O [E2, 17β-estradiol, reference compound] | – | – | – | time until induced GFP signal can be observed, higher E2 concentrations ([2]; 102 or 1020 nM, after onset of exposure): ≤ 4 h; induced expression of transgene GFP in the liver ([2]; embryo, larva and male fish): can also be induced; time until GFP signal reaches saturation ([2]; higher E2 concentrations (102 or 1020 nM)): ≤ 24 h; induction of liver GFP expression [2]: can induce liver GFP expression; time until induced GFP signal can be observed ([2]; transgenic larvae, E2 exposure): ≤ 24 h |
| C[C@]12CC[C@@H]3c4ccc(O)cc4CC[C@H]3[C@@H]1C[C@@H](O)[C@@H]2O [E3, estriol, reference compound] | – | – | – | induction of liver GFP expression [2]: can induce liver GFP expression |
| CC1CC(OC(=O)c2ccccc2O)CC(C)(C)C1 (stereo not drawn) [HMS, homosalate] | can enhance the estrogenic activity of 17β-estradiol in a dose-dependent manner; also recorded: increased | cannot induce the GFP expression | – | – |
| CCCCCCCCCc1ccc(O)cc1 [NP, 4-nonyphenol] | – | can also induce GFP expression | – | – |
| CCCCC(CC)COC(=O)c1ccc(N(C)C)cc1 (stereo not drawn) [OD-PABA, octyl dimethyl PABA] | estrogen agonism | cannot induce the GFP expression | – | – |
| O=c1c(-c2ccc(O)cc2)coc2cc(O)ccc12 [daidzein] | – | – | weak GFP signal | – |
| O=c1c(-c2ccc(O)cc2)coc2cc(O[C@@H]3O[C@H](CO)[C@@H](O)[C@H](O)[C@H]3O)ccc12 [daidzin] | – | – | weak GFP signal | – |
| C#C[C@]1(O)CC[C@H]2[C@@H]3CCc4cc(OC)ccc4[C@H]3CC[C@@]21C [ethinylestradiol 3-methyl ether, reference compound] | – | – | – | induced liver GFP signal compared with E2 ([2]; same concentration (nM), same period (24 hours)): stronger than that induced by E2 |
| O=c1c(-c2ccc(O)cc2)coc2cc(O)cc(O)c12 [genistein] | – | – | weak GFP signal | – |
| O=c1c(-c2ccc(O)cc2)coc2cc(O[C@@H]3O[C@H](CO)[C@@H](O)[C@H](O)[C@H]3O)cc(O)c12 [genistin] | – | – | weak GFP signal | – |
